Measurements taken from patent publication US6706663B2, “Herbicidal 3-heterocyclic substituted benzisothiazole and benzisoxazole compounds” (Wyeth, priority 2000, dated 2004).

Assays:
ZEAMX (Corn, Field) = assay: Postemergence herbicidal evaluation; format: in vivo, Zea mays, L.; conditions: for ZEAMX herbicidal rating: postemergence
Method in brief: (§1)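 Visual 0–9 injury scores versus control plants, covering stand, vigour, malformation, size, chlorosis and general appearance, taken four to five weeks post-spray and averaged over replicate tests. Plants were sprayed at roughly two weeks old and held on greenhouse benches.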

[1] = tested on: GLXMAW (Soybean, Williams); assay: Postemergence herbicidal evaluation; format: in vivo, Glycine max, (L.) Merr. cv Williams; conditions: for GLXMAW herbicidal rating: postemergence
Method in brief: as §1

[2] = tested on: IPOHE (Ipomoea hederacea); assay: Postemergence herbicidal evaluation; format: in vivo, (L.) Jacq.; conditions: for IPOHE herbicidal rating: postemergence
Method in brief: as §1

ORYSAT (Rice, Tebonnet) [3] = assay: Preemergence herbicidal evaluation; format: in vivo, Oryza sativa, (L.) Tebonnet; conditions: rated 4-5 weeks after treatment
[4] = tested on: TRZAWR (Wheat, Winter, cv Riband); assay: Preemergence herbicidal evaluation; format: in vivo, Triticum aestivum; conditions: rated 4-5 weeks after treatment
Method in brief: (§2)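 Visual 0-9 rating versus untreated control, taken four to five weeks post-treatment, scoring stand, vigor, malformation, size, chlorosis and overall appearance. Compound applied as aqueous acetone spray to freshly seeded soil cups, then kept under standard greenhouse care.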

GALAP (Galium aparine) [5] = assay: Postemergence herbicidal evaluation; format: in vivo; conditions: for GALAP herbicidal rating: postemergence
Method in brief: as §1

[6] = tested on: AMBEL (Ambrosia artemisifolia); assay: Postemergence herbicidal evaluation; format: in vivo, L.; conditions: for AMBEL herbicidal rating: postemergence
Method in brief: as §1

[7] = tested on: CASOB (Cassia obtusifolia); assay: Postemergence herbicidal evaluation; format: in vivo, L.; conditions: for CASOB herbicidal rating: postemergence
Method in brief: as §1

[8] = tested on: CHEAL (Chenopodium album); assay: Postemergence herbicidal evaluation; format: in vivo, L.; conditions: for CHEAL herbicidal rating: postemergence
Method in brief: as §1

ORYSAT (Rice, Tebonnet) [9] = assay: Postemergence herbicidal evaluation; format: in vivo, Oryza sativa, (L.) Tebonnet; conditions: for ORYSAT herbicidal rating: postemergence
Method in brief: as §1

GALAP (Galium aparine) [10] = assay: Preemergence herbicidal evaluation; format: in vivo; conditions: rated 4-5 weeks after treatment
Method in brief: as §2

[11] = tested on: ECHCG (Echinochloa crus-galli); assay: Preemergence herbicidal evaluation; format: in vivo, (L.) Beau; conditions: rated 4-5 weeks after treatment
Method in brief: as §2

SETVI (Setaria viridis) = assay: Preemergence herbicidal evaluation; format: in vivo, (L.) Beau; conditions: rated 4-5 weeks after treatment
Method in brief: as §2

[12] = tested on: ABUTH (Abutilon theophrasti); assay: Postemergence herbicidal evaluation; format: in vivo, Medic.; conditions: for ABUTH herbicidal rating: postemergence
Method in brief: as §1

Cc1cccnc1-c1nsc2cc(F)c(N3C(=O)C4=C(CCCC4)C3=O)cc12 [Compound 46, N-[6-fluoro-3-(3-methyl-2-pyridyl)-1,2-benzisothiazol-5-yl]-1-cyclohexene-1,2-dicarboximide]
Postemergence herbicidal rating, ZEAMX (ZEAMX (Corn, Field); rate 0.0320 kg/ha): 4.5
Postemergence herbicidal rating, ZEAMX (ZEAMX (Corn, Field); rate 0.0620 kg/ha): 4.5
Postemergence herbicidal rating, ZEAMX (ZEAMX (Corn, Field); rate 0.1250 kg/ha): 5.5
Postemergence herbicidal rating, GLXMAW ([1]; rate 0.0320 kg/ha): 6.0
Postemergence herbicidal rating, GLXMAW ([1]; rate 0.0620 kg/ha): 7.5
Postemergence herbicidal rating, GLXMAW ([1]; rate 0.1250 kg/ha): 7.5
Postemergence herbicidal rating, IPOHE ([2]; rate 0.0320 kg/ha): 9.0
Postemergence herbicidal rating, IPOHE ([2]; rate 0.0620 kg/ha): 9.0
Postemergence herbicidal rating, IPOHE ([2]; rate 0.1250 kg/ha): 9.0
Preemergence herbicidal rating ORYSAT (ORYSAT (Rice, Tebonnet) [3]; Rate 0.0620 kg/ha): 1.0
Preemergence herbicidal rating ORYSAT (ORYSAT (Rice, Tebonnet) [3]; Rate 0.1250 kg/ha): 0.0
Preemergence herbicidal rating ORYSAT (ORYSAT (Rice, Tebonnet) [3]; Rate 0.2500 kg/ha): 4.0
Preemergence herbicidal rating TRZAWR ([4]; Rate 0.0620 kg/ha): 1.0
Preemergence herbicidal rating TRZAWR ([4]; Rate 0.1250 kg/ha): 0.0
Preemergence herbicidal rating TRZAWR ([4]; Rate 0.2500 kg/ha): 2.0
Postemergence herbicidal rating, GALAP (GALAP (Galium aparine) [5]; rate 0.0320 kg/ha): 4.0
Postemergence herbicidal rating, GALAP (GALAP (Galium aparine) [5]; rate 0.0620 kg/ha): 6.0
Postemergence herbicidal rating, GALAP (GALAP (Galium aparine) [5]; rate 0.1250 kg/ha): 5.0
Postemergence herbicidal rating, AMBEL ([6]; rate 0.0320 kg/ha): 7.0
Postemergence herbicidal rating, AMBEL ([6]; rate 0.0620 kg/ha): 9.0
Postemergence herbicidal rating, AMBEL ([6]; rate 0.1250 kg/ha): 9.0
Postemergence herbicidal rating, CASOB ([7]; rate 0.0320 kg/ha): 7.0
Postemergence herbicidal rating, CASOB ([7]; rate 0.0620 kg/ha): 9.0
Postemergence herbicidal rating, CASOB ([7]; rate 0.1250 kg/ha): 9.0
Postemergence herbicidal rating, CHEAL ([8]; rate 0.0320 kg/ha): 6.0
Postemergence herbicidal rating, CHEAL ([8]; rate 0.0620 kg/ha): 9.0
Postemergence herbicidal rating, CHEAL ([8]; rate 0.1250 kg/ha): 9.0
Postemergence herbicidal rating, ORYSAT (ORYSAT (Rice, Tebonnet) [9]; rate 0.0320 kg/ha): 4.0
Postemergence herbicidal rating, ORYSAT (ORYSAT (Rice, Tebonnet) [9]; rate 0.0620 kg/ha): 3.5
Postemergence herbicidal rating, ORYSAT (ORYSAT (Rice, Tebonnet) [9]; rate 0.1250 kg/ha): 4.5
Preemergence herbicidal rating GALAP (GALAP (Galium aparine) [10]; Rate 0.1250 kg/ha): 0.0
Preemergence herbicidal rating GALAP (GALAP (Galium aparine) [10]; Rate 0.2500 kg/ha): 0.0
Preemergence herbicidal rating ECHCG ([11]; Rate 0.0620 kg/ha): 1.0
Preemergence herbicidal rating ECHCG ([11]; Rate 0.1250 kg/ha): 5.0
Preemergence herbicidal rating ECHCG ([11]; Rate 0.2500 kg/ha): 8.0
Preemergence herbicidal rating SETVI (SETVI (Setaria viridis); Rate 0.0620 kg/ha): 9.0
Preemergence herbicidal rating SETVI (SETVI (Setaria viridis); Rate 0.1250 kg/ha): 9.0
Preemergence herbicidal rating SETVI (SETVI (Setaria viridis); Rate 0.2500 kg/ha): 9.0
Postemergence herbicidal rating, ABUTH ([12]; rate 0.0320 kg/ha): 9.0
Postemergence herbicidal rating, ABUTH ([12]; rate 0.0620 kg/ha): 9.0
Postemergence herbicidal rating, ABUTH ([12]; rate 0.1250 kg/ha): 9.0

C=C1COC(c2nsc3ccc(-n4c(=O)cc(C(F)(F)F)n(C)c4=O)cc23)OC1 [Compound 58, 2,4(1H,3H)-pyrimidinedione, 1-methyl-3-[3-(5-methylene-m-dioxan-2-yl)-1,2-benzisothiazol-5-yl]-6-(trifluoromethyl)-]
ZEAMX herbicidal rating (ZEAMX (Corn, Field); rate 0.0320 kg/ha): 5.5
ZEAMX herbicidal rating (ZEAMX (Corn, Field); rate 0.0620 kg/ha): 5.5
GLXMAW herbicidal rating ([1]; rate 0.0320 kg/ha): 7.0
GLXMAW herbicidal rating ([1]; rate 0.0620 kg/ha): 7.5
IPOHE herbicidal rating ([2]; rate 0.0320 kg/ha): 9.0
IPOHE herbicidal rating ([2]; rate 0.0620 kg/ha): 9.0
Preemergence herbicidal rating ORYSAT (ORYSAT (Rice, Tebonnet) [3]; Rate 0.0620 kg/ha): 8.5
Preemergence herbicidal rating ORYSAT (ORYSAT (Rice, Tebonnet) [3]; Rate 0.1250 kg/ha): 9.0
Preemergence herbicidal rating ORYSAT (ORYSAT (Rice, Tebonnet) [3]; Rate 0.2500 kg/ha): 9.0
Preemergence herbicidal rating TRZAWR ([4]; Rate 0.0620 kg/ha): 7.0
Preemergence herbicidal rating TRZAWR ([4]; Rate 0.1250 kg/ha): 8.0
Preemergence herbicidal rating TRZAWR ([4]; Rate 0.2500 kg/ha): 8.0
GALAP herbicidal rating (GALAP (Galium aparine) [5]; rate 0.0320 kg/ha): 7.0
GALAP herbicidal rating (GALAP (Galium aparine) [5]; rate 0.0620 kg/ha): 9.0
AMBEL herbicidal rating ([6]; rate 0.0320 kg/ha): 9.0
AMBEL herbicidal rating ([6]; rate 0.0620 kg/ha): 9.0
CASOB herbicidal rating ([7]; rate 0.0320 kg/ha): 1.0
CASOB herbicidal rating ([7]; rate 0.0620 kg/ha): 8.0
CHEAL herbicidal rating ([8]; rate 0.0320 kg/ha): 3.0
CHEAL herbicidal rating ([8]; rate 0.0620 kg/ha): 5.0
ORYSAT herbicidal rating (ORYSAT (Rice, Tebonnet) [9]; rate 0.0320 kg/ha): 3.5
ORYSAT herbicidal rating (ORYSAT (Rice, Tebonnet) [9]; rate 0.0620 kg/ha): 5.0
Preemergence herbicidal rating GALAP (GALAP (Galium aparine) [10]; Rate 0.0620 kg/ha): 9.0
Preemergence herbicidal rating GALAP (GALAP (Galium aparine) [10]; Rate 0.1250 kg/ha): 9.0
Preemergence herbicidal rating GALAP (GALAP (Galium aparine) [10]; Rate 0.2500 kg/ha): 9.0
Preemergence herbicidal rating ECHCG ([11]; Rate 0.0620 kg/ha): 9.0
Preemergence herbicidal rating ECHCG ([11]; Rate 0.1250 kg/ha): 9.0
Preemergence herbicidal rating ECHCG ([11]; Rate 0.2500 kg/ha): 9.0
Preemergence herbicidal rating SETVI (SETVI (Setaria viridis); Rate 0.0620 kg/ha): 8.0
Preemergence herbicidal rating SETVI (SETVI (Setaria viridis); Rate 0.1250 kg/ha): 9.0
Preemergence herbicidal rating SETVI (SETVI (Setaria viridis); Rate 0.2500 kg/ha): 9.0
ABUTH herbicidal rating ([12]; rate 0.0320 kg/ha): 9.0
ABUTH herbicidal rating ([12]; rate 0.0620 kg/ha): 9.0
